Measured values as given in patent US10829520B2, “Beta-hairpin peptidomimetics” (POLYPHOR AG, priority 2015, dated 2020).
Where a SMILES comes first, the peptide text is derived from it. Bridges are numbered along the chain shown (N, C = ends). Roman numbers before positions name the chains, in order. [ ]: non-standard residue; d: D form. Tle = CC(C)(C)[C@H](N)C(=O)O; dDab = NCC[C@@H](N)C(=O)O; Nle = CCCC[C@H](N)C(=O)O; Orn = NCCC[C@H](N)C(=O)O; Dab = NCC[C@H](N)C(=O)O; dAze = O=C(O)[C@H]1CCN1; Sar = CNCC(=O)O

Legend:
Type in all cases: cell-based
[1] = test system: Acinetobacter baumannii DSM 30008; conditions: DSM 30008
In short: (§1)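 MIC in μg/mL; CLSI microdilution; cation-adjusted Mueller-Hinton II with Polysorbate 80 (0.002%); 10^6 CFU/mL; 35° C, 18-20 h.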

[2] = test system: Escherichia coli ATCC 25922; conditions: ATCC 25922
In short: as §1

Escherichia coli 926415 = conditions: 926415
[3] = test system: Klebsiella pneumoniae 968733; conditions: 968733
[4] = test system: Klebsiella pneumoniae SSI #3010; conditions: SSI #3010
In short: as §1

[5] = test system: Acinetobacter baumannii 872842; conditions: 872842
[6] = test system: Pseudomonas aeruginosa ATCC 27853; conditions: ATCC 27853
In short: as §1

[7] = test system: human red blood cells (hRBC); test: Hemolysis of human red blood cells; conditions: red cells of human, 1 h
In short: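 Fresh human red blood cells are washed in PBS, then shaken with peptide (100 μg/mL) at 37° C. for 1 h, final erythrocyte density about 0.9×10^9 cells/mL. After centrifugation, diluted supernatants are read at 540 nm against buffer (0%) and Triton X-100 (100%) lysis controls.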

CCCC[C@@H]1NC(=O)[C@@H]2CCCN2C(=O)[C@H]2CCCN2C(=O)[C@H](CO)NC(=O)[C@H](C)NC(=O)[C@H](C(C)(C)C)NC(=O)[C@H](CCN)NC(=O)[C@H](Cc2c[nH]c3ccccc23)NC(=O)[C@H](CCC(=O)N[C@H](C(=O)N[C@@H](CCN)C(=O)N[C@H]2CCNC(=O)[C@H]([C@@H](C)O)NC(=O)[C@H](CCN)NC(=O)[C@H](CCN)NC(=O)[C@H](CC(C)C)NC(=O)[C@@H](Cc3ccccc3)NC(=O)[C@H](CCN)NC2=O)[C@@H](C)O)NC(=O)[C@@H](CCN)NC(=O)[C@H](CCCN)NC(=O)[C@H](CCN)NC(=O)[C@H](Cc2ccc(O)cc2)NC(=O)[C@H](CO)NC1=O [Ex. 75] (I: cyclo([Nle]SY[Dab][Orn][dDab]EW[Dab][Tle]AS[dP]P) / II: T[Dab][Dab][Dab][dF]L[Dab][Dab]T; amide I:7-II:N; lactam II:3-II:C)
Acinetobacter baumannii DSM 30008 MIC [1]: 0.5 µg/mL | Escherichia coli ATCC 25922 MIC [2]: 0.5 µg/mL | Escherichia coli 926415 MIC (Escherichia coli 926415): 1 µg/mL | Klebsiella pneumoniae 968733 MIC [3]: 4 µg/mL | Klebsiella pneumoniae SSI #3010 MIC [4]: 0.5 µg/mL | Acinetobacter baumannii 872842 MIC [5]: 2 µg/mL | Pseudomonas aeruginosa ATCC 27853 MIC [6]: 0.25 µg/mL | Hemolysis at 100 μg/mL [7]; 100: <1%

CC(C)C[C@@H]1NC(=O)[C@@H](CC(C)C)NC(=O)[C@H](CCN)NC(=O)[C@@H](NC(=O)[C@H](CCN)NC(=O)CN(C)C(=O)C[C@@H]2NC(=O)[C@H](CCN)NC(=O)[C@H](Cc3ccc(O)cc3)NC(=O)[C@H](CO)NC(=O)[C@H](CC(C)C)NC(=O)[C@@H]3CCCN3C(=O)[C@H]3CCCN3C(=O)[C@H](CO)NC(=O)[C@H](C)NC(=O)[C@H](C(C)C)NC(=O)[C@H](CCN)NC(=O)[C@H](Cc3c[nH]c4ccccc34)NC(=O)[C@H](CCN)NC(=O)[C@@H](CCN)NC2=O)CCNC(=O)[C@H]([C@@H](C)O)NC(=O)[C@H](CCN)NC(=O)[C@H](CCN)NC1=O [Ex. 76] (I: cyclo(W[Dab]VAS[dP]PLSY[Dab]D[dDab][Dab]) / II: [Sar][Dab][Dab][Dab][dL]L[Dab][Dab]T; amide I:12-II:N; lactam II:3-II:C)
Acinetobacter baumannii DSM 30008 MIC [1]: 1 µg/mL | Escherichia coli ATCC 25922 MIC [2]: 2 µg/mL | Escherichia coli 926415 MIC (Escherichia coli 926415): 0.5 µg/mL | Klebsiella pneumoniae 968733 MIC [3]: 2 µg/mL | Klebsiella pneumoniae SSI #3010 MIC [4]: 2 µg/mL | Acinetobacter baumannii 872842 MIC [5]: 0.5 µg/mL | Pseudomonas aeruginosa ATCC 27853 MIC [6]: 0.5 µg/mL | Hemolysis at 100 μg/mL [7]; 100: 1%

CC(C)C[C@@H]1NC(=O)[C@@H](CC(C)C)NC(=O)[C@H](CCN)NC(=O)[C@@H](NC(=O)[C@H](CCN)NC(=O)CN(C)C(=O)C[C@@H]2NC(=O)[C@H](CCCN)NC(=O)[C@H](CCN)NC(=O)[C@H](Cc3ccc(O)cc3)NC(=O)[C@H](CO)NC(=O)[C@H](CC(C)C)NC(=O)[C@@H]3CCCN3C(=O)[C@H]3CCCN3C(=O)[C@H](Cc3ccc(O)cc3)NC(=O)[C@H](C)NC(=O)[C@H](C(C)(C)C)NC(=O)[C@H](CCN)NC(=O)[C@H](Cc3c[nH]c4ccccc34)NC(=O)[C@H](CCN)NC2=O)CCNC(=O)[C@H]([C@@H](C)O)NC(=O)[C@H](CCN)NC(=O)[C@H](CCN)NC1=O [Ex. 77] (I: cyclo(LSY[Dab][Orn]D[Dab]W[Dab][Tle]AY[dP]P) / II: [Sar][Dab][Dab][Dab][dL]L[Dab][Dab]T; amide I:6-II:N; lactam II:3-II:C)
Acinetobacter baumannii DSM 30008 MIC [1]: 1 µg/mL | Escherichia coli ATCC 25922 MIC [2]: 1 µg/mL | Escherichia coli 926415 MIC (Escherichia coli 926415): 0.5 µg/mL | Klebsiella pneumoniae 968733 MIC [3]: 2 µg/mL | Klebsiella pneumoniae SSI #3010 MIC [4]: 1 µg/mL | Acinetobacter baumannii 872842 MIC [5]: 2 µg/mL | Pseudomonas aeruginosa ATCC 27853 MIC [6]: 1 µg/mL | Hemolysis at 100 μg/mL [7]; 100: <1%

CCCC[C@@H]1NC(=O)[C@@H]2CCCN2C(=O)[C@H]2CCCN2C(=O)[C@H](CO)NC(=O)[C@H](C)NC(=O)[C@H](C(C)(C)C)NC(=O)[C@H](CCN)NC(=O)[C@H](Cc2c[nH]c3ccccc23)NC(=O)[C@H](CCN)NC(=O)[C@H](CCC(=O)N[C@@H](CCN)C(=O)N[C@H](CCN)C(=O)N[C@H]2CCNC(=O)[C@H]([C@@H](C)O)NC(=O)[C@H](CCN)NC(=O)[C@H](CCN)NC(=O)[C@H](CC(C)C)NC(=O)[C@@H](CC(C)C)NC(=O)[C@H](CCN)NC2=O)NC(=O)[C@H](CCCN)NC(=O)[C@H](CCN)NC(=O)[C@H](Cc2ccc(O)cc2)NC(=O)[C@H](CO)NC1=O [Ex. 78] (I: cyclo([Nle]SY[Dab][Orn]E[Dab]W[Dab][Tle]AS[dP]P) / II: [Dab][dDab][Dab][Dab][dL]L[Dab][Dab]T; amide I:6-II:N; lactam II:3-II:C)
Acinetobacter baumannii DSM 30008 MIC [1]: 0.5 µg/mL | Escherichia coli ATCC 25922 MIC [2]: 0.5 µg/mL | Escherichia coli 926415 MIC (Escherichia coli 926415): 0.5 µg/mL | Klebsiella pneumoniae 968733 MIC [3]: 0.5 µg/mL | Klebsiella pneumoniae SSI #3010 MIC [4]: 0.5 µg/mL | Acinetobacter baumannii 872842 MIC [5]: 1 µg/mL | Pseudomonas aeruginosa ATCC 27853 MIC [6]: 0.25 µg/mL | Hemolysis at 100 μg/mL [7]; 100: 1%

CC(C)C[C@@H]1NC(=O)[C@@H](CC(C)C)NC(=O)[C@H](CCN)NC(=O)[C@@H](NC(=O)[C@H](CCN)NC(=O)[C@H](CCN)NC(=O)[C@@H]2CCC(=O)N[C@@H](CCN)C(=O)N[C@@H](Cc3c[nH]c4ccccc34)C(=O)N[C@H]3CSSC[C@H](NC(=O)[C@H](Cc4ccc(O)cc4)NC(=O)[C@H](CO)NC(=O)[C@H](CC(C)C)NC(=O)[C@@H]4CCCN4C(=O)[C@H]4CCCN4C(=O)[C@H](CO)NC(=O)[C@H](C)NC(=O)[C@H](C(C)C)NC3=O)C(=O)NCC(=O)N2)CCNC(=O)[C@H]([C@@H](C)O)NC(=O)[C@H](CCN)NC(=O)[C@H](CCN)NC1=O [Ex. 79] ([Dab]WCVAS[dP]PLSYCGE[Dab][Dab][Dab][Dab][dL]L[Dab][Dab]T; disulfide 3-12; lactam 17-C, N-14)
Acinetobacter baumannii DSM 30008 MIC [1]: 0.5 µg/mL | Escherichia coli ATCC 25922 MIC [2]: 0.5 µg/mL | Escherichia coli 926415 MIC (Escherichia coli 926415): 2 µg/mL | Klebsiella pneumoniae 968733 MIC [3]: 8 µg/mL | Klebsiella pneumoniae SSI #3010 MIC [4]: 1 µg/mL | Acinetobacter baumannii 872842 MIC [5]: 2 µg/mL | Pseudomonas aeruginosa ATCC 27853 MIC [6]: 0.5 µg/mL | Hemolysis at 100 μg/mL ([7]; 100 μg/mL): <1%

CC(C)C[C@@H]1NC(=O)[C@@H](Cc2ccccc2)NC(=O)[C@H](CCN)NC(=O)[C@@H](NC(=O)[C@H](CCN)NC(=O)[C@@H](NC(=O)[C@H](CCN)NC(=O)CC[C@@H]2NC(=O)[C@H](CCN)NC(=O)[C@H](Cc3ccc(O)cc3)NC(=O)[C@H]([C@@H](C)O)NC(=O)[C@H](C(C)C)NC(=O)[C@@H]3CCCN3C(=O)[C@H]3CCN3C(=O)[C@H](CO)NC(=O)[C@H](C)NC(=O)[C@H](C(C)(C)C)NC(=O)[C@H](CCN)NC(=O)[C@H](Cc3c[nH]c4ccccc34)NC(=O)[C@H](CCN)NC(=O)[C@@H](CCN)NC2=O)[C@@H](C)O)CCNC(=O)[C@H]([C@@H](C)O)NC(=O)[C@H](CCN)NC(=O)[C@H](CCN)NC1=O [Ex. 80] (I: cyclo(W[Dab][Tle]AS[dAze]PVTY[Dab]E[dDab][Dab]) / II: [Dab]T[Dab][Dab][Dab][dF]L[Dab][Dab]T; amide I:12-II:N; lactam II:4-II:C)
Acinetobacter baumannii DSM 30008 MIC [1]: 0.5 µg/mL | Escherichia coli ATCC 25922 MIC [2]: 0.25 µg/mL | Escherichia coli 926415 MIC (Escherichia coli 926415): 0.25 µg/mL | Klebsiella pneumoniae 968733 MIC [3]: 1 µg/mL | Klebsiella pneumoniae SSI #3010 MIC [4]: 0.25 µg/mL | Acinetobacter baumannii 872842 MIC [5]: 0.5 µg/mL | Pseudomonas aeruginosa ATCC 27853 MIC [6]: 0.25 µg/mL | Hemolysis at 100 μg/mL [7]; 100: <1%

CCCC[C@@H]1NC(=O)[C@@H]2CCCN2C(=O)[C@H]2CCCN2C(=O)[C@H](CO)NC(=O)[C@H](C)NC(=O)[C@H](C(C)(C)C)NC(=O)[C@H](CCN)NC(=O)[C@H](Cc2c[nH]c3ccccc23)NC(=O)[C@H](CCN)NC(=O)[C@@H](CCN)NC(=O)[C@H](CCC(=O)N[C@@H](CCN)C(=O)N[C@@H](C(=O)N[C@@H](CCN)C(=O)N[C@H]2CCNC(=O)[C@H]([C@@H](C)O)NC(=O)[C@H](CCN)NC(=O)[C@H](CCN)NC(=O)[C@H](CC(C)C)NC(=O)[C@@H](Cc3ccccc3)NC(=O)[C@H](CCN)NC2=O)[C@H](C)O)NC(=O)[C@H](CCN)NC(=O)[C@H](Cc2ccc(O)cc2)NC(=O)[C@H](CO)NC1=O [Ex. 81] (I: cyclo(W[Dab][Tle]AS[dP]P[Nle]SY[Dab]E[dDab][Dab]) / II: [Dab][dT][Dab][Dab][Dab][dF]L[Dab][Dab]T; amide I:12-II:N; lactam II:4-II:C)
Acinetobacter baumannii DSM 30008 MIC [1]: 1 µg/mL | Escherichia coli ATCC 25922 MIC [2]: 0.5 µg/mL | Escherichia coli 926415 MIC (Escherichia coli 926415): 0.5 µg/mL | Klebsiella pneumoniae 968733 MIC [3]: 2 µg/mL | Klebsiella pneumoniae SSI #3010 MIC [4]: 1 µg/mL | Acinetobacter baumannii 872842 MIC [5]: 2 µg/mL | Pseudomonas aeruginosa ATCC 27853 MIC [6]: 0.5 µg/mL | Hemolysis at 100 μg/mL [7]; 100: 1%
